Like-named read-outs stand apart in the source and are kept apart here.
Tests used:
[1] = tested on: MES-induced seizures; test: animal or person; format: in vivo, Kunming mice; conditions: for minimal effective dose: Mus musculus, ip, doses 30, 100, 300 mg/kg, read-out: MES, dose at which at least one of three animals was protected; for ED50 (MES) / PI (TD50/ED50) MES: 0.5 h; for ED50 (MES): value (95% CI); for PI (TD50/ED50) MES: Kunming, mouse, in vivo
Procedure: (§1) Pharmacological tests were performed using two experimental animal models, MES and scPTZ, which were divided into three dosage groups of 30, 100, and 300 mg/kg, and the anticonvulsant activity of the target compounds 6a–m and 9a–g, after 0.5 and 4 h of administration, respectively, were tested. Carbamazepine, which is effective in the MES model, was chosen as a positive control, and ethosuximide, which is effective in the scPTZ model, was chosen as a positive control. […]
Protection against the spread of
extension component of the seizure. […]

[2] = tested on: pentylenetetrazole-induced clonic seizures; test: animal or person; format: in vivo, Kunming mice; conditions: for minimal effective dose: Mus musculus, sc, read-out: scPTZ, dose at which at least one of three animals was protected; for minimal effective dose / scPTZ, dose at which at least one of three animals was protected: doses 30, 100, 300 mg/kg; for ED50 (scPTZ) / PI (TD50/ED50) scPTZ: 0.5 h; for ED50 (scPTZ): value (95% CI); for PI (TD50/ED50) scPTZ: Kunming, mouse, in vivo
Procedure: as §1
The test compound wa s
Absence of clonic spasms indicated a […]

[3] = tested on: mice; test: Rotarod (ROT) neurotoxicity test; conditions: for NT (neurotoxicity, ROT), dose at which at least one of three animals showed neurotoxicity: doses 100, 300 mg/kg; for TD50 (ROT): 0.5 h, value (95% CI)
Procedure: The neurotoxicity of the target compounds was tested using the ROT experimental model, which was divided into two dose groups, 100 and 300 mg/kg, and tested after 0.5 and 4 h of administration, respectively.
The neurotoxicity of the target compounds was determined using the ROT experimental model.
The neurotoxicity of the compounds wa s measured in mice using the rotarod test. Mice
we r e trained to stay on an accelerating rotarod (diameter, 3.2 cm) rotating at 10 rpm. Trained
animals we r e injected with the test compounds (i.p.) and neurotoxicity wa s measured as the
inability of the animal to maintain equilibrium on the rod for at least 1 min in each of the

O=C(Nc1ccc(-n2cncn2)cc1)c1ccccc1 [Compound 6a, N-(4-(1H-1,2,4-triazol-1-yl)phenyl)benzamide]
minimal effective dose ([1]; 0.5 h after administration): 300 mg/kg
minimal effective dose ([1]; 4 h after administration): 300 mg/kg
minimal effective dose ([2]; 0.5 h after administration): 100 mg/kg
minimal effective dose ([2]; 4 h after administration): 100 mg/kg
NT (neurotoxicity, ROT), dose at which at least one of three animals showed neurotoxicity ([3]; 0.5 h after administration): >300 mg/kg
NT (neurotoxicity, ROT), dose at which at least one of three animals showed neurotoxicity ([3]; 4 h after administration): >300 mg/kg

O=C(Nc1ccc(-n2cncn2)cc1)c1ccccc1Cl [Compound 6b, N-(4-(1H-1,2,4-triazol-1-yl)phenyl)-2-chlorobenzamide]
minimal effective dose ([1]; 0.5 h after administration): 300 mg/kg
minimal effective dose ([1]; 4 h after administration): 100 mg/kg
minimal effective dose ([2]; 0.5 h after administration): 100 mg/kg
minimal effective dose ([2]; 4 h after administration): 300 mg/kg
NT (neurotoxicity, ROT), dose at which at least one of three animals showed neurotoxicity ([3]; 0.5 h after administration): >300 mg/kg
NT (neurotoxicity, ROT), dose at which at least one of three animals showed neurotoxicity ([3]; 4 h after administration): >300 mg/kg

O=C(Nc1ccc(-n2cncn2)cc1)c1cccc(Cl)c1 [Compound 6c, N-(4-(1H-1,2,4-triazol-1-yl)phenyl)-3-chlorobenzamide]
minimal effective dose ([1]; 0.5 h after administration): 100 mg/kg
minimal effective dose ([1]; 4 h after administration): 300 mg/kg
minimal effective dose ([2]; 0.5 h after administration): 100 mg/kg
minimal effective dose ([2]; 4 h after administration): 100 mg/kg
NT (neurotoxicity, ROT), dose at which at least one of three animals showed neurotoxicity ([3]; 0.5 h after administration): >300 mg/kg
NT (neurotoxicity, ROT), dose at which at least one of three animals showed neurotoxicity ([3]; 4 h after administration): >300 mg/kg

O=C(Nc1ccc(-n2cncn2)cc1)c1ccc(Cl)cc1 [Compound 6d, N-(4-(1H-1,2,4-triazol-1-yl)phenyl)-4-chlorobenzamide]
minimal effective dose ([1]; 0.5 h after administration): 300 mg/kg
minimal effective dose ([1]; 4 h after administration): 300 mg/kg
scPTZ, dose at which at least one of three animals was protected ([2]; 4 h after administration): inactive
minimal effective dose ([2]; 0.5 h after administration): 300 mg/kg
minimal effective dose ([2]; 4 h after administration): > 300 mg/kg
NT (neurotoxicity, ROT), dose at which at least one of three animals showed neurotoxicity ([3]; 0.5 h after administration): >300 mg/kg
NT (neurotoxicity, ROT), dose at which at least one of three animals showed neurotoxicity ([3]; 4 h after administration): >300 mg/kg

O=C(Nc1ccc(-n2cncn2)cc1)c1ccccc1F [Compound 6e, N-(4-(1H-1,2,4-triazol-1-yl)phenyl)-2-fluorobenzamide]
minimal effective dose ([1]; 0.5 h after administration): 100 mg/kg
minimal effective dose ([1]; 4 h after administration): 100 mg/kg
minimal effective dose ([2]; 0.5 h after administration): 100 mg/kg
minimal effective dose ([2]; 4 h after administration): 100 mg/kg
NT (neurotoxicity, ROT), dose at which at least one of three animals showed neurotoxicity ([3]; 0.5 h after administration): >300 mg/kg
NT (neurotoxicity, ROT), dose at which at least one of three animals showed neurotoxicity ([3]; 4 h after administration): >300 mg/kg

O=C(Nc1ccc(-n2cncn2)cc1)c1ccc(F)cc1 [Compound 6g, N-(4-(1H-1,2,4-triazol-1-yl)phenyl)-4-fluorobenzamide]
ED50 (MES) [1]: 13.7 mg/kg
PI (TD50/ED50) MES [1]: 31.3
minimal effective dose ([1]; 0.5 h after administration): 30 mg/kg
minimal effective dose ([1]; 4 h after administration): 30 mg/kg
ED50 (scPTZ) [2]: 31.5 mg/kg
PI (TD50/ED50) scPTZ [2]: 13.6
minimal effective dose ([2]; 0.5 h after administration): 30 mg/kg
minimal effective dose ([2]; 4 h after administration): 100 mg/kg
TD50 (ROT) [3]: 429.1 (466.4–394.7) mg
NT (neurotoxicity, ROT), dose at which at least one of three animals showed neurotoxicity ([3]; 0.5 h after administration): >300 mg/kg
NT (neurotoxicity, ROT), dose at which at least one of three animals showed neurotoxicity ([3]; 4 h after administration): >300 mg/kg

O=C(Nc1ccc(-n2cncn2)cc1)c1ccccc1C(F)(F)F [Compound 6h, N-(4-(1H-1,2,4-triazol-1-yl)phenyl)-2-(trifluoromethyl)benzamide]
minimal effective dose ([1]; 0.5 h after administration): 100 mg/kg
minimal effective dose ([1]; 4 h after administration): 300 mg/kg
scPTZ, dose at which at least one of three animals was protected ([2]; 4 h after administration): inactive
minimal effective dose ([2]; 0.5 h after administration): 300 mg/kg
minimal effective dose ([2]; 4 h after administration): > 300 mg/kg
NT (neurotoxicity, ROT), dose at which at least one of three animals showed neurotoxicity ([3]; 0.5 h after administration): >300 mg/kg
NT (neurotoxicity, ROT), dose at which at least one of three animals showed neurotoxicity ([3]; 4 h after administration): >300 mg/kg

O=C(Nc1ccc(-n2cncn2)cc1)c1cccc(C(F)(F)F)c1 [Compound 6i, N-(4-(1H-1,2,4-triazol-1-yl)phenyl)-3-(trifluoromethyl)benzamide]
ED50 (MES) [1]: 21.9 mg/kg
PI (TD50/ED50) MES [1]: 17.4
minimal effective dose ([1]; 0.5 h after administration): 30 mg/kg
minimal effective dose ([1]; 4 h after administration): 30 mg/kg
ED50 (scPTZ) [2]: 22.8 mg/kg
PI (TD50/ED50) scPTZ [2]: 16.7
minimal effective dose ([2]; 0.5 h after administration): 30 mg/kg
minimal effective dose ([2]; 4 h after administration): 100 mg/kg
TD50 (ROT) [3]: 381.4 (414.6–350.8) mg
NT (neurotoxicity, ROT), dose at which at least one of three animals showed neurotoxicity ([3]; 0.5 h after administration): >300 mg/kg
NT (neurotoxicity, ROT), dose at which at least one of three animals showed neurotoxicity ([3]; 4 h after administration): >300 mg/kg

O=C(Nc1ccc(-n2cncn2)cc1)c1ccc(C(F)(F)F)cc1 [Compound 6j, N-(4-(1H-1,2,4-triazol-1-yl)phenyl)-4-(trifluoromethyl)benzamide]
minimal effective dose ([1]; 0.5 h after administration): 100 mg/kg
minimal effective dose ([1]; 4 h after administration): 300 mg/kg
minimal effective dose ([2]; 0.5 h after administration): 100 mg/kg
minimal effective dose ([2]; 4 h after administration): 100 mg/kg
NT (neurotoxicity, ROT), dose at which at least one of three animals showed neurotoxicity ([3]; 0.5 h after administration): >300 mg/kg
NT (neurotoxicity, ROT), dose at which at least one of three animals showed neurotoxicity ([3]; 4 h after administration): >300 mg/kg

Cc1ccccc1C(=O)Nc1ccc(-n2cncn2)cc1 [Compound 6k, N-(4-(1H-1,2,4-triazol-1-yl)phenyl)-2-methylbenzamide]
minimal effective dose ([1]; 0.5 h after administration): 30 mg/kg
minimal effective dose ([1]; 4 h after administration): 100 mg/kg
minimal effective dose ([2]; 0.5 h after administration): 100 mg/kg
minimal effective dose ([2]; 4 h after administration): 300 mg/kg
NT (neurotoxicity, ROT), dose at which at least one of three animals showed neurotoxicity ([3]; 0.5 h after administration): >300 mg/kg
NT (neurotoxicity, ROT), dose at which at least one of three animals showed neurotoxicity ([3]; 4 h after administration): >300 mg/kg

Cc1ccc(C(=O)Nc2ccc(-n3cncn3)cc2)cc1 [Compound 6m, N-(4-(1H-1,2,4-triazol-1-yl)phenyl)-4-methylbenzamide]
minimal effective dose ([1]; 0.5 h after administration): 300 mg/kg
minimal effective dose ([1]; 4 h after administration): 300 mg/kg
minimal effective dose ([2]; 0.5 h after administration): 100 mg/kg
minimal effective dose ([2]; 4 h after administration): 300 mg/kg
NT (neurotoxicity, ROT), dose at which at least one of three animals showed neurotoxicity ([3]; 0.5 h after administration): >300 mg/kg
NT (neurotoxicity, ROT), dose at which at least one of three animals showed neurotoxicity ([3]; 4 h after administration): >300 mg/kg

CCC(=O)Nc1ccc(-n2cncn2)cc1 [Compound 9a, N-(4-(1H-1,2,4-triazol-1-yl)phenyl)propionamide]
minimal effective dose ([1]; 0.5 h after administration): 100 mg/kg
minimal effective dose ([1]; 4 h after administration): 300 mg/kg
minimal effective dose ([2]; 0.5 h after administration): 100 mg/kg
minimal effective dose ([2]; 4 h after administration): 100 mg/kg
NT (neurotoxicity, ROT), dose at which at least one of three animals showed neurotoxicity ([3]; 0.5 h after administration): >300 mg/kg
NT (neurotoxicity, ROT), dose at which at least one of three animals showed neurotoxicity ([3]; 4 h after administration): >300 mg/kg

CCCC(=O)Nc1ccc(-n2cncn2)cc1 [Compound 9b, N-(4-(1H-1,2,4-triazol-1-yl)phenyl)butyramide]
minimal effective dose ([1]; 0.5 h after administration): 30 mg/kg
minimal effective dose ([1]; 4 h after administration): 100 mg/kg
minimal effective dose ([2]; 0.5 h after administration): 30 mg/kg
minimal effective dose ([2]; 4 h after administration): 100 mg/kg
NT (neurotoxicity, ROT), dose at which at least one of three animals showed neurotoxicity ([3]; 0.5 h after administration): 300 mg/kg
NT (neurotoxicity, ROT), dose at which at least one of three animals showed neurotoxicity ([3]; 4 h after administration): >300 mg/kg

CCCCC(=O)Nc1ccc(-n2cncn2)cc1 [Compound 9c, N-(4-(1H-1,2,4-triazol-1-yl)phenyl)pentanamide]
ED50 (MES) [1]: 17.3 mg/kg
PI (TD50/ED50) MES [1]: 15.0
minimal effective dose ([1]; 0.5 h after administration): 30 mg/kg
minimal effective dose ([1]; 4 h after administration): 30 mg/kg
ED50 (scPTZ) [2]: 35.5 mg/kg
PI (TD50/ED50) scPTZ [2]: 7.3
minimal effective dose ([2]; 0.5 h after administration): 30 mg/kg
minimal effective dose ([2]; 4 h after administration): 100 mg/kg
TD50 (ROT) [3]: 260.0 (282.7–239.2) mg
NT (neurotoxicity, ROT), dose at which at least one of three animals showed neurotoxicity ([3]; 0.5 h after administration): 300 mg/kg
NT (neurotoxicity, ROT), dose at which at least one of three animals showed neurotoxicity ([3]; 4 h after administration): >300 mg/kg

CCCCCC(=O)Nc1ccc(-n2cncn2)cc1 [Compound 9d, N-(4-(1H-1,2,4-triazol-1-yl)phenyl)hexanamide]
minimal effective dose ([1]; 0.5 h after administration): 30 mg/kg
minimal effective dose ([1]; 4 h after administration): 30 mg/kg
minimal effective dose ([2]; 0.5 h after administration): 100 mg/kg
minimal effective dose ([2]; 4 h after administration): 100 mg/kg
NT (neurotoxicity, ROT), dose at which at least one of three animals showed neurotoxicity ([3]; 0.5 h after administration): >300 mg/kg
NT (neurotoxicity, ROT), dose at which at least one of three animals showed neurotoxicity ([3]; 4 h after administration): >300 mg/kg

CCCCCCC(=O)Nc1ccc(-n2cncn2)cc1 [Compound 9e, N-(4-(1H-1,2,4-triazol-1-yl)phenyl)heptanamide]
minimal effective dose ([1]; 0.5 h after administration): 100 mg/kg
minimal effective dose ([1]; 4 h after administration): 300 mg/kg
minimal effective dose ([2]; 0.5 h after administration): 300 mg/kg
minimal effective dose ([2]; 4 h after administration): > 300 mg/kg
NT (neurotoxicity, ROT), dose at which at least one of three animals showed neurotoxicity ([3]; 0.5 h after administration): >300 mg/kg
NT (neurotoxicity, ROT), dose at which at least one of three animals showed neurotoxicity ([3]; 4 h after administration): >300 mg/kg
